For ten compounds, GI50 and TGI results are on record in PubChem BioAssay (NCI).

Among the test systems are OVCAR-4 ovarian; CCRF-CEM leukemia; U251 CNS; SNB-75 CNS; EKVX NSCLC; OVCAR-3 ovarian; SF-268 CNS; RPMI-8226 leukemia; OVCAR-5 ovarian; HOP-62 NSCLC.
Assay in all cases: inhibition of tumour cell growth, NCI panel, 48 h

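Where inhibition never reached the appropriate level, the endpoint shown equals the highest concentration tested. Otherwise, values were interpolated linearly from a five-concentration, 48-hour dose response in 96-well plates. GI50 = concentration required for 50% inhibition of growth. TGI: concentration producing complete growth inhibition.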

On to `COc1ccc(-c2nc3sc(-c4ccc(Cl)cc4)cn3n2)cc1`, for which the GI50 was 0.766 µM in the test on OVCAR-4 ovarian; > 50 µM with CCRF-CEM leukemia; 1.03 µM in the test on U251 CNS; 1.61 µM in the test on SNB-75 CNS; 4.82 µM in the test with EKVX NSCLC; 1.72 µM with OVCAR-3 ovarian. Besides, the GI50 is 48 µM in the test with SF-268 CNS, 3.67 µM in the test with RPMI-8226 leukemia, 2.78 µM in the test on OVCAR-5 ovarian and 2.36 µM in the test on HOP-62 NSCLC. Moreover, the TGI was 1.63 µM in the test with OVCAR-4 ovarian; > 50 µM with CCRF-CEM leukemia; 2.29 µM in the test with U251 CNS; 6.85 µM in the test with SNB-75 CNS; > 50 µM in the test with EKVX NSCLC; 7.2 µM in the test on OVCAR-3 ovarian. For the same compound, the TGI in the test with SF-268 CNS, in the test with RPMI-8226 leukemia, in the test with OVCAR-5 ovarian and in the test on HOP-62 NSCLC was > 50 µM throughout.
As for `COc1cc(/C=C\c2ccc(C)cc2)cc(OC)c1OC`, the TGI with OVCAR-4 ovarian was 46.5 µM; with CCRF-CEM leukemia it was < 0.044 µM; in the test with U251 CNS, 0.348 µM; with EKVX NSCLC, > 100 µM; in the test with OVCAR-3 ovarian it was 0.00442 µM; in the test on SF-268 CNS it was > 63.3 µM. Moreover, the TGI is 25.2 µM with RPMI-8226 leukemia, > 91.5 µM in the test on OVCAR-5 ovarian and 34.1 µM in the test with HOP-62 NSCLC. The GI50 in the test on SNB-75 CNS is 0.0149 µM; with EKVX NSCLC, < 0.022 µM; in the test with SF-268 CNS, < 0.0136 µM.
On to `O=C1C=C(NCCNC(=S)Nc2ccccc2)c2nccc3c2c1nc1ccccc13`, for which the GI50 in the test on OVCAR-4 ovarian was 92.7 µM; with CCRF-CEM leukemia it was > 100 µM; in the test on U251 CNS, 58.9 µM; with SNB-75 CNS, > 100 µM; in the test on EKVX NSCLC, > 100 µM; in the test on OVCAR-3 ovarian, 18.1 µM. In addition, the GI50 in the test on SF-268 CNS is 53.7 µM; in the test with RPMI-8226 leukemia, 74.6 µM; in the test on OVCAR-5 ovarian, > 100 µM; with HOP-62 NSCLC, 81.7 µM. Besides, the TGI in the test with OVCAR-4 ovarian, in the test with CCRF-CEM leukemia, in the test on U251 CNS, in the test with SNB-75 CNS, with EKVX NSCLC and with OVCAR-3 ovarian was > 100 µM throughout. Moreover, the TGI with SF-268 CNS, with RPMI-8226 leukemia, with OVCAR-5 ovarian and with HOP-62 NSCLC was > 100 µM in each case.
As to `CCCCC1CC(c2cccc([N+](=O)[O-])c2)=NO1` (stereo unspecified), the TGI in the test with OVCAR-4 ovarian, in the test on CCRF-CEM leukemia, in the test with U251 CNS, in the test on SNB-75 CNS, in the test with EKVX NSCLC and with OVCAR-3 ovarian was > 100 µM each time. Further, the TGI in the test on SF-268 CNS, in the test with RPMI-8226 leukemia, in the test with OVCAR-5 ovarian and in the test with HOP-62 NSCLC was > 100 µM throughout.
`O=Cc1ccccc1OCCOc1cc(OCCOc2ccccc2C=O)c(OCCOc2ccccc2C=O)cc1OCCOc1ccccc1C=O`: the TGI in the test with OVCAR-4 ovarian is > 100 µM; in the test with CCRF-CEM leukemia, > 100 µM; in the test on U251 CNS, > 50.1 µM; in the test with SNB-75 CNS, 23.9 µM; in the test on EKVX NSCLC it was > 100 µM; in the test with OVCAR-3 ovarian, > 100 µM. Also, the TGI in the test on SF-268 CNS, in the test on RPMI-8226 leukemia, in the test with OVCAR-5 ovarian and with HOP-62 NSCLC was > 100 µM each time.
For the compound `C=C(CCCCCCCCC)CC(=O)SCCNC(=O)CCNC(=O)C(O)C(C)(C)COP(=O)(O)OP(=O)(O)OCC1OC(n2cnc3c(N)ncnc32)C(O)C1OP(=O)(O)O` (stereo unspecified), the TGI was > 100 µM in the test with OVCAR-4 ovarian; > 100 µM in the test on CCRF-CEM leukemia; > 100 µM with U251 CNS; 58.8 µM with SNB-75 CNS; > 100 µM with EKVX NSCLC; > 100 µM in the test on OVCAR-3 ovarian. The TGI was 15.3 µM in the test with SF-268 CNS, 62.7 µM with RPMI-8226 leukemia, > 100 µM with OVCAR-5 ovarian and > 85.7 µM in the test on HOP-62 NSCLC.
Take `CC(=O)NNc1nc(C)c(C(=O)NNC(=O)C(=O)Nc2c(C)cccc2C)s1`: the TGI was > 100 µM in the test on OVCAR-4 ovarian; 81.7 µM with CCRF-CEM leukemia; > 100 µM in the test with U251 CNS; > 100 µM in the test with SNB-75 CNS; > 100 µM in the test with EKVX NSCLC; 65.3 µM in the test with OVCAR-3 ovarian. Besides, the TGI with SF-268 CNS, with RPMI-8226 leukemia, in the test on OVCAR-5 ovarian and with HOP-62 NSCLC was > 100 µM each time.
For the compound `Cc1c(S(C)(=O)=O)c(-c2cc(F)cc(N3CCN(c4ccc(NS(=O)(=O)c5ccc(N[C@H](CCN6CCC(C(=O)OCCCP(=O)(O)O)CC6)CSc6ccccc6)c(S(=O)(=O)C(F)(F)F)c5)cc4)CC3)c2)c(-c2ccc(Cl)cc2)n1C(C)C`, the GI50 with OVCAR-4 ovarian is > 100 µM; with CCRF-CEM leukemia, 0.456 µM; with U251 CNS, > 100 µM; with SNB-75 CNS, > 100 µM; with EKVX NSCLC, > 100 µM; in the test on OVCAR-3 ovarian, > 100 µM. Further, the GI50 in the test on SF-268 CNS was > 100 µM; in the test with RPMI-8226 leukemia it was 1.29 µM; in the test with OVCAR-5 ovarian it was > 100 µM; in the test with HOP-62 NSCLC, > 100 µM. Further, the TGI with OVCAR-4 ovarian, in the test on CCRF-CEM leukemia, in the test on U251 CNS, in the test on SNB-75 CNS, in the test on EKVX NSCLC and in the test with OVCAR-3 ovarian was > 100 µM each time. Further, the TGI in the test with SF-268 CNS, with RPMI-8226 leukemia, in the test with OVCAR-5 ovarian and in the test with HOP-62 NSCLC was > 100 µM each time.
As to `COc1cc(CCN)c2c(c1OC)SSSSS2`, the GI50 is 1.05 µM in the test with OVCAR-4 ovarian; 0.395 µM with CCRF-CEM leukemia; 1.08 µM with U251 CNS; 1.5 µM in the test on SNB-75 CNS; 1.26 µM with EKVX NSCLC; 0.204 µM in the test with OVCAR-3 ovarian. For the same compound, the GI50 is 1.95 µM in the test on SF-268 CNS, 0.287 µM in the test on RPMI-8226 leukemia, 0.591 µM with OVCAR-5 ovarian and 1.81 µM with HOP-62 NSCLC. For the same compound, the TGI in the test on OVCAR-4 ovarian turned out to be 2.51 µM; in the test on U251 CNS it was 2.46 µM; in the test on SNB-75 CNS, 2.87 µM; in the test with EKVX NSCLC it was 2.59 µM; in the test with OVCAR-3 ovarian, 0.538 µM; with SF-268 CNS it was 4.76 µM. The TGI in the test with RPMI-8226 leukemia is 1.77 µM; with OVCAR-5 ovarian it was 1.48 µM; in the test with HOP-62 NSCLC, 3.3 µM.
On to `CC1OC(OCC2OC(Oc3c(-c4ccc(O)cc4)oc4cc(O)cc(O)c4c3=O)C(OC3OC(C)C(O)C(O)C3O)C(O)C2O)C(O)C(O)C1O` (stereo unspecified), for which the TGI in the test on OVCAR-4 ovarian was > 90.2 µM; with CCRF-CEM leukemia, > 83.5 µM; in the test with U251 CNS it was > 100 µM; in the test on SNB-75 CNS it was > 100 µM; in the test with EKVX NSCLC it was > 100 µM; with OVCAR-3 ovarian it was > 100 µM. The TGI in the test on SF-268 CNS is > 100 µM; with RPMI-8226 leukemia, > 81.3 µM; in the test on OVCAR-5 ovarian, > 100 µM; in the test on HOP-62 NSCLC, > 100 µM.
